Test: Virosomal fusion activity before and after lyophilization (FRET assay)
Settings: cationic lipid as integral virosomal membrane component; after lyophilization and reconstitution
Description: FRET Assay: For in vitro fusion measurements by fluorescence resonance energy transfer (FRET) (Struck et al., Biochemistry 20(14):4093-99, 1981; Loyter et al., Methods Biochem. Anal. 33:129-64, 1988), the following assay was developed: 0.75 mol % of Bodipy 530/550-DHPE and 0.25 mol % of N-Rh-DHPE were incorporated into liposomes consisting of PC/DPPG (70:30). Fluorescence measurements were carried out at discrete temperatures between 4° C. and 42° C. in 5 mM sodium phosphate buffer pH 7.5, 100 mM NaCl, in a final volume of 0.8 ml in 2.5 ml PMMA micro-cuvettes (VWR, Switzerland) under continuous stirring. […] The increase in fluorescence was recorded every 5 seconds at excitation and emission wavelengths of 538 nm and 558 nm, respectively, with an excitation slit of 2.5 nm and an emission slit of 15.0 nm. Measurements were carried out with an LS 55 Luminescence spectrometer (Perkin Elmer Instruments, USA) equipped with a thermostated cuvette holder and a magnetic stirring device. The maximal fluorescence at infinite probe dilution was reached after addition of Triton X-100 (0.5% v/v final concentration). For calibration of the fluorescence scale the initial residual fluorescence of the liposomes was set to zero and the fluorescence at infinite probe dilution to 100%.

Structure (SMILES)	preservation of virosomal fusion-activity
CC(C)CCC[C@@H](C)[C@H]1CC[C@H]2[C@@H]3CC=C4C[C@@H](OC(=O)NCCN(C)C)CC[C@]4(C)[C@H]3CC[C@]12C.Cl [DC-Chol, 3β[N-(N′,N′-dimethylammonioethane)-carbamoyl]cholesterol chloride]	superior properties in preserving virosomal fusion-activity
CC(C)CCC[C@@H](C)[C@H]1CC[C@H]2[C@@H]3CC=C4C[C@@H](OC(=O)NCC[N+](C)(C)C)CC[C@]4(C)[C@H]3CC[C@]12C.[Cl-] [TC-Chol, 3β[N-(N′,N′,N′-trimethylammonioethane)-carbamoyl]cholesterol chloride]	superior properties in preserving virosomal fusion-activity

— patent publication US20080268028A1, “Lyophilization of virosomes” (Pevion Biotech Ltd., priority 2004, published 2008)
